Consider one compound from paper PMC6940912, “Novel Drug-Like Somatostatin Receptor 4 Agonists are Potential Analgesics for Neuropathic Pain” (International Journal of Molecular Sciences, 2019).

Common to all, as to type: biochemical
In one experiment the target is T1, PDE3A (Homo sapiens, UniProt Q14432).
T1 construct: Eurofins Cerep (contract assay)
Description: Selectivity profile (Eurofins Cerep), enzyme inhibition. Conditions: % inhibition of control enzyme activity, read-out: Enzymatic Activity (%). How it is done: (§1) The evaluation was performed by Eurofins Cerep (France). Compound binding was calculated as a % inhibition of the binding of a radioactively labeled ligand specific for each target. Enzyme inhibition effect was calculated as a % inhibition of control enzyme activity. Cellular agonist effect was calculated as a % of control response to a known reference agonist for each target, and cellular antagonist effect was calculated as a % inhibition of control reference agonist response for each target. In each experiment the respective reference compound was tested concurrently with Compound 1 [71, 72, 73, 74, 75, 76, 77, 78]. See in Supplementary Materials.

The target of a further experiment is T2, COX-2 (Homo sapiens, UniProt P35354).
T2 construct: Eurofins Cerep (contract assay)
T2 sequence (P35354 18-604): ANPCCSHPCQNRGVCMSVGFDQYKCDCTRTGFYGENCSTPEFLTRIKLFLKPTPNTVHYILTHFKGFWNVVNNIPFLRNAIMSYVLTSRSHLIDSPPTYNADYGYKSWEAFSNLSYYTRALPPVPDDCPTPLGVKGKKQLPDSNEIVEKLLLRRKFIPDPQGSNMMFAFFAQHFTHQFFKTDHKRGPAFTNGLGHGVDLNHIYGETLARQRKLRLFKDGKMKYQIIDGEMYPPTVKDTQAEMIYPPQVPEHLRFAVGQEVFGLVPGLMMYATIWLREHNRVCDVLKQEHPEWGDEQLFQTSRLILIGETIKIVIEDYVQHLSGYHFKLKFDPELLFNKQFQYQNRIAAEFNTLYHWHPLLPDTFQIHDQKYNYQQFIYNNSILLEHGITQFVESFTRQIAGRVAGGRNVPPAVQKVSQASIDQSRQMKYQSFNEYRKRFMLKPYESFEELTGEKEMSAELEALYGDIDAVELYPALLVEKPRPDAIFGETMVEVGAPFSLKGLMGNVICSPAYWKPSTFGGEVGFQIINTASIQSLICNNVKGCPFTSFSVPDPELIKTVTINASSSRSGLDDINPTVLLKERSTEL
Described as above. Conditions: % inhibition of control enzyme activity, read-out: Enzymatic Activity (%). How it is done: as §1

In a further experiment the target is T3, MAOA (Homo sapiens, UniProt P21397).
T3 construct: Eurofins Cerep (contract assay)
T3 sequence (P21397 1-527): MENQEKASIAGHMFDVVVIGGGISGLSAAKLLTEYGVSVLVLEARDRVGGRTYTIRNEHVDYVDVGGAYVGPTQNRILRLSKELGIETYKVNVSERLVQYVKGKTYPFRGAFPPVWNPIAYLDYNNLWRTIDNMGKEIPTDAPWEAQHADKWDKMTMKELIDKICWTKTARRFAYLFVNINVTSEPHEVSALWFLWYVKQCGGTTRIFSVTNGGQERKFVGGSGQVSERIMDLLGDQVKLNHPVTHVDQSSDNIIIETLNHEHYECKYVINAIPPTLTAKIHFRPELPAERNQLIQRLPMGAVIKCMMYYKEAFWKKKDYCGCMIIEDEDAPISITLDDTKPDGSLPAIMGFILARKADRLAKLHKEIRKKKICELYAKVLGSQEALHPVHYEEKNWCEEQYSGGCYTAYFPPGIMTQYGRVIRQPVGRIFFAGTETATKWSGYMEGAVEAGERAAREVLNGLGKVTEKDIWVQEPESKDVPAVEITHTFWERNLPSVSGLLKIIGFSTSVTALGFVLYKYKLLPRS
Described as above. Conditions: % inhibition of control enzyme activity, read-out: Enzymatic Activity (%). The method, then:
as §1

In another experiment the target is T4, PDE4D2 (Homo sapiens, UniProt Q08499).
T4 construct: Eurofins Cerep (contract assay)
T4 sequence (Q08499 303-809 limits assumed): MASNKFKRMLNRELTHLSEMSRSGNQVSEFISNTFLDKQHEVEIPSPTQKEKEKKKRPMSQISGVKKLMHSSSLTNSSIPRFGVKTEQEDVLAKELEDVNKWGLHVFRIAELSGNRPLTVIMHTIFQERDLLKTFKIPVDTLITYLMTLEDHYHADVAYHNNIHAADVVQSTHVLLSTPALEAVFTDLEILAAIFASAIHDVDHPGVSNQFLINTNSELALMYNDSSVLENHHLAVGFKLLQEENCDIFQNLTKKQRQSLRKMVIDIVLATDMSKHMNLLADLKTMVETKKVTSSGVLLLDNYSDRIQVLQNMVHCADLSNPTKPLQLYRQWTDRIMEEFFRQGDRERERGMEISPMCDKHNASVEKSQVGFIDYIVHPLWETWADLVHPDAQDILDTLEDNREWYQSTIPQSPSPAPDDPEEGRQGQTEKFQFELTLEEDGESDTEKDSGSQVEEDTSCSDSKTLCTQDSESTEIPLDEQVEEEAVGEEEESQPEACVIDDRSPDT
Described as above. Conditions: % inhibition of control enzyme activity, read-out: Enzymatic Activity (%). The method, then:
as §1

A further experiment concerns the target T5, sst4 receptor (Homo sapiens, UniProt P31391).
T5 construct: expressed in transfected cells; host or cells: CHO cells
Kind of experiment: sst4 receptor-linked G-protein activation, [35S]GTPγS binding assay on membranes of sst4-expressing CHO cells. The method, then: Membrane fractions were prepared from CHO cells, which express the sst4 receptor, in Tris–ethylene glycol-bis(2-aminoethyl)tetraacetic acid (Tris–EGTA) buffer (50 mM Tris–HCl (Sigma, St. Louis, MO, USA), 1 mM EGTA (Sigma, St. Louis, MO, USA), 3 mM MgCl2 (Sigma, St. Louis, MO, USA), 100 mM NaCl (Sigma, St. Louis, MO, USA), pH 7.4, 10 μg of protein/sample). The fractions were incubated in the buffer containing 0.05 nM guanosine triphosphate (GTP) (BioChemica International Inc., Melbourne, Florida, USA), labeled on the gamma phosphate group with ^35S ([^35S]GTPγS) (Isotop Institute, Budapest, Hungary) and increasing concentrations (1 nM to 10 µM) of C1, C2, C3 and C4 compounds for 60 min at 30 °C, in the presence of 30 μM guanosine diphosphate (GDP) (Sigma, St. Louis, MO, USA). We determined the nonspecific binding in the presence of 10 μM unlabeled GTPγS and total binding in the absence of test compounds. Samples were filtrated through Whatman GF/B glass fiber filters using 48-well Slot Blot Manifold from Cleaver Scientific (Cleaver Scientific Ltd., Rugby, Warwickshire, United Kingdom). Filters were washed with ice-cold 50 mM Tris–HCl buffer (pH 7.4) and radioactivity was measured in a β-counter (PerkinElmer Inc., Waltham, MA, USA). The test-compound-induced G-protein activation was given as percentage over the specific [^35S]GTPγS binding detected in the absence of agonists.
In the sst4 receptor activation assay, all the compounds were dissolved in dimethyl sulfoxide (DMSO) (Szkarabeusz Ltd., Pécs, Hungary). The concentration of the stock solutions was 10 mM and was diluted with distilled water to reach the final concentrations. For the in vivo experiments, 1 mg of the compounds was rubbed dry in a braying mortar, suspended thoroughly in 1 mL 1.25% methylcellulose (MC) (Pharmacy of University of Pécs, Pécs, Hungary) solution and then dissolved in sterile bidistilled water to get a 1000 µg/mL stock solution freshly every experimental day. Most microsuspensions looked opalescent; they were shaken properly, sonicated, and further diluted with 1.25% MC to obtain the 25 µg/mL solution for oral administrations (0.2 mL/10 g body weight for the 500 µg/kg dose). The solutions were shaken and sonicated again directly before use. The vehicle was always 1.25% MC dissolved in sterile bidistilled water.
A general note: GTPγS is a poorly hydrolysed GTP analogue; its binding reports G protein activation.

The structures appear in SMILES notation.

T5 sequence (P31391 whole entry): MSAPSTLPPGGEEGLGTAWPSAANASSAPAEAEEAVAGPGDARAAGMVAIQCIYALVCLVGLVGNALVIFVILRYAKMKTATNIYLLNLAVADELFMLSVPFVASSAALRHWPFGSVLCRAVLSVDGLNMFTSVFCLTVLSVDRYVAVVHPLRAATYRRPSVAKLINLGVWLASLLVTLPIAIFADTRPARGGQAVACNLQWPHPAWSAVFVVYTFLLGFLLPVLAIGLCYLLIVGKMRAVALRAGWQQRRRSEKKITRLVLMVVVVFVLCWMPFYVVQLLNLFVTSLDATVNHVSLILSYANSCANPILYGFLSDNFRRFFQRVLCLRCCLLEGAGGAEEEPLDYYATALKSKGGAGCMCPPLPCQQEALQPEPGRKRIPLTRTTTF
T1 sequence (Q14432 whole entry, species assumed): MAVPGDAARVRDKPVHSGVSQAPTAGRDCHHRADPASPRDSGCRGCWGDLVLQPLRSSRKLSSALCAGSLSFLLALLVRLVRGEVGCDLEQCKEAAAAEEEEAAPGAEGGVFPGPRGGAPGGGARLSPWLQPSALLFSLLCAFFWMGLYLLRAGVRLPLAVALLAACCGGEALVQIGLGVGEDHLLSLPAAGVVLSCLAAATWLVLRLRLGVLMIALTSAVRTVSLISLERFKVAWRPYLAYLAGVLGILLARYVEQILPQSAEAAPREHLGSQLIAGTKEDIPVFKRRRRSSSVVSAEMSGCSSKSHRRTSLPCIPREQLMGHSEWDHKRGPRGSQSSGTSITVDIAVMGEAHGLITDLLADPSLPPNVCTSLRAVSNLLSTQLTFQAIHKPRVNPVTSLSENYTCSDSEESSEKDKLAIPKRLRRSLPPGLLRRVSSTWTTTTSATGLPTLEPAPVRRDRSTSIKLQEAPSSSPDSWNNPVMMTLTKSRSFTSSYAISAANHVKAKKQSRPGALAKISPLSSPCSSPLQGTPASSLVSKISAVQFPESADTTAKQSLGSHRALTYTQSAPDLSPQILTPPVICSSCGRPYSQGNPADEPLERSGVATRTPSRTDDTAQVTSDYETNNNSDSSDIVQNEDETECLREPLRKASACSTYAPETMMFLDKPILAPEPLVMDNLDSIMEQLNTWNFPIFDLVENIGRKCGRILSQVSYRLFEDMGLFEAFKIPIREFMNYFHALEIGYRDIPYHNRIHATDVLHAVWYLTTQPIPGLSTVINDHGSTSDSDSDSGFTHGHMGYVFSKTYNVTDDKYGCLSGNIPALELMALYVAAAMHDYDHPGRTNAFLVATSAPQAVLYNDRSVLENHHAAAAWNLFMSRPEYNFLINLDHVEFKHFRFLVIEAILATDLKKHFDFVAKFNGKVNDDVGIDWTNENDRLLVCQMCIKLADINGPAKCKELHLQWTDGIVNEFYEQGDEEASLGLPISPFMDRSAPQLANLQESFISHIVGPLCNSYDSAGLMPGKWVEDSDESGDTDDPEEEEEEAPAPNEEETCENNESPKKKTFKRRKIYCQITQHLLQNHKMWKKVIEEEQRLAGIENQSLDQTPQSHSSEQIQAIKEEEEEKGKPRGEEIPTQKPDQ

Usually EC50 stands for the concentration that produces a half-maximal response. Higher therefore signals a less potent agent. For the compound `c1ccc(CCNc2ncnc3c2ccn3Cc2ccccc2)cc1` [Compound 1, (7-Benzyl-7H-pyrrolo[2,3-d]pyrimidin-4-yl)-phenethyl-amine], the inhibition at 1 µM on PDE3A is -15%; at COX-2 it was -10.4%; at MAOA, 2.7%; at PDE4D2 it was -0.6%. In addition, the EC50 at sst4 receptor (1 nM to 10 µM, n = 3) turned out to be 37 nM. Further, at sst4 receptor ([35S]GTPγS binding, mean ± SEM, n = 3, read-out: Maximal activation over the basal activity of the receptor (efficacy)), the Emax came to 218%.
